Each compound was assayed against T1, Human KLK1 (Homo sapiens, UniProt P06870) (assay: Determination of the IC50 for KLK1 (fluorogenic substrate H-DVal-Leu-Arg-AFC)). Conditions: 37° C.
T1 construct: purchased Callbiochem (Calbiochem)
Assay type: biochemical
Description: Determination of the IC50 for KLK1
KLK1 inhibitory activity in vitro was determined using standard published methods (see e.g. Johansen et al., Int. J. Tiss. Reac. 1986, 8, 185; Shori et al., Biochem. Pharmacol., 1992, 43, 1209; Stürzebecher et al., Biol. Chem. Hoppe-Seyler, 1992, 373, 1025). Human KLK1 (Callbiochem) was incubated at 37° C. with the fluorogenic substrate H-DVal-Leu-Arg-AFC and various concentrations of the test compound. Residual enzyme activity (initial rate of reaction) was determined by measuring the change in optical absorbance at 410 nm and the IC50 value for the test compound was determined.

T1 sequence (P06870 25-262): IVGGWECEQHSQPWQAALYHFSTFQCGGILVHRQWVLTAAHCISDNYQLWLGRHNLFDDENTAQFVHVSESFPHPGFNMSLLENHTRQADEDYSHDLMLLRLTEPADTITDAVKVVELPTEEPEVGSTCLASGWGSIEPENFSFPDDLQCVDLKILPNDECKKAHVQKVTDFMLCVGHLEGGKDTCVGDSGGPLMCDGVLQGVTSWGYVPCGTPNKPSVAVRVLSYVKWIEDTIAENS

| Structure (SMILES) | IC50 |
| --- | --- |
| Nc1ccc(CNC(=O)[C@H](Cc2ccc(F)c(F)c2)NC(=O)[C@H]2CCCN2Cc2cccc(Cl)c2)cn1 [Example 143, (R)-1-(3-Chloro-benzyl)-pyrrolidine-2-carboxylic acid [(S)-1-[(6-amino-pyridin-3-ylmethyl)-carbamoyl]-2-(3,4-difluoro-phenyl)-ethyl]-amide] | 21 nM |
| CCC(C)[C@@H](NC)C(=O)N[C@@H](Cc1ccc(Cl)cc1)C(=O)NCc1ccc(N)nc1 (stereo partly drawn) [Example 46, (R)-3-Methyl-2-methylamino-pentanoic acid [(S)-1-[(6-amino-pyridin-3-ylmethyl)-carbamoyl]-2-(4-chloro-phenyl)-ethyl]-amide] | 1.2 nM |
| Cc1cc[nH]c1C(=O)N[C@@H](Cc1ccc(C(F)(F)F)cc1)C(=O)NCc1ccc(N)nc1 [Example 258, 3-Methyl-1H-pyrrole-2-carboxylic acid [(S)-1-[(6-amino-pyridin-3-ylmethyl)-carbamoyl]-2-(4-trifluoromethyl-phenyl)-ethyl]-amide] | 10.3 nM |
| CCN1CCC[C@@H]1C(=O)N[C@@H](Cc1cccc(Cl)c1)C(=O)NCc1ccc(N)nc1 [Example 138, (R)-1-Ethyl-pyrrolidine-2-carboxylic acid [(S)-1-[(6-amino-pyridin-3-ylmethyl)-carbamoyl]-2-(3-chloro-phenyl)-ethyl]-amide] | 39.8 nM |
| Cc1nc(N)ccc1CNC(=O)[C@H](Cc1ccc(Cl)c(Cl)c1)NC(=O)[C@H](N)CC1CCCCC1 [Example 200, (R)-2-Amino-N-[(S)-1-[(6-amino-2-methyl-pyridin-3-ylmethyl)-carbamoyl]-2-(3,4-dichloro-phenyl)-ethyl]-3-cyclohexyl-propionamide] | 22.1 nM |
| CCC(C)[C@@H](N)C(=O)N[C@@H](Cc1c[nH]c2ccccc12)C(=O)NCc1ccc(N)nc1 (stereo partly drawn) [Example 40, (R)-2-Amino-3-methyl-pentanoic acid [(S)-1-[(6-amino-pyridin-3-ylmethyl)-carbamoyl]-2-(1H-indol-3-yl)-ethyl]-amide] | 6.6 nM |
| COc1ccc2[nH]c(C(=O)N[C@@H](Cc3cccc(F)c3)C(=O)NCc3ccc(N)nc3)cc2c1 [Example 312, 5-Methoxy-1H-indole-2-carboxylic acid [(S)-1-[(6-amino-pyridin-3-ylmethyl)-carbamoyl]-2-(3-fluoro-phenyl)-ethyl]-amide] | 38.4 nM |
| CNCC(=O)N[C@@H](Cc1ccc(Cl)c(Cl)c1)C(=O)NCc1ccc(N)nc1 [Example 69, (S)—N-(6-Amino-pyridin-3-ylmethyl)-3-(3,4-dichloro-phenyl)-2-(2-methylamino-acetylamino)-propionamide] | 42.2 nM |
| CC(C)CN(C)CC(=O)N[C@@H](Cc1ccc(Cl)c(Cl)c1)C(=O)NCc1ccc(N)nc1 [Example 154, (S)—N-(6-Amino-pyridin-3-ylmethyl)-3-(3,4-dichloro-phenyl)-2-[2-(isobutyl-methyl-amino)-acetylamino]-propionamide] | 216 nM |
| Nc1ccc(CNC(=O)[C@H](Cc2cccc(Cl)c2)NC(=O)c2cc3ccccc3[nH]2)cn1 [Example 313, 1H-Indole-2-carboxylic acid [(S)-1-[(6-amino-pyridin-3-ylmethyl)-carbamoyl]-2-(3-chloro-phenyl)-ethyl]-amide] | 8.7 nM |
| Cc1nc(N)ccc1CNC(=O)[C@H](Cc1ccc(Cl)c(Cl)c1)NC(=O)[C@H]1CCCCN1 [Example 201, (R)-Piperidine-2-carboxylic acid [(S)-1-[(6-amino-2-methyl-pyridin-3-ylmethyl)-carbamoyl]-2-(3,4-dichloro-phenyl)-ethyl]-amide] | 1.3 nM |
| C[C@@H](N)C(=O)N[C@@H](CC1CCCC2CCCCC21)C(=O)NCc1ccc(N)nc1 (stereo partly drawn) [Example 18, (R)-2-Amino-N-[(S)-1-[(6-amino-pyridin-3-ylmethyl)-carbamoyl]-2-(decahydro-naphthalen-1-yl)-ethyl]-propionamide] | 5 nM |
| C[C@H](C(=O)N[C@@H](Cc1ccc(F)cc1)C(=O)NCc1ccc(N)nc1)N1CCCCC1 [Example 374, (R)—N-[(S)-1-[(6-Amino-pyridin-3-ylmethyl)-carbamoyl]-2-(4-fluoro-phenyl)-ethyl]-2-piperidin-1-yl-propionamide] | 52.7 nM |
| Cc1cc[nH]c1C(=O)N[C@@H](Cc1ccc(F)cc1)C(=O)NCc1ccc(N)nc1 [Example 261, 3-Methyl-1H-pyrrole-2-carboxylic acid [(S)-1-[(6-amino-pyridin-3-ylmethyl)-carbamoyl]-2-(4-fluoro-phenyl)-ethyl]-amide] | 13.2 nM |
| Nc1ccc(CNC(=O)[C@H](Cc2ccc(C(F)(F)F)cc2)NC(=O)CN2CCCCC2)cn1 [Example 423, (S)—N-(6-Amino-pyridin-3-ylmethyl)-2-(2-piperidin-1-yl-acetylamino)-3-(4-trifluoromethyl-phenyl)-propionamide] | 129 nM |

Now from value to compound:

| IC50 | Structure (SMILES) |
| --- | --- |
| 55.6 nM | CCN(C)[C@@H](CO)C(=O)N[C@@H](Cc1ccc(F)c(F)c1)C(=O)NCc1ccc(N)nc1 [Example 361, (S)—N-[(S)-1-[(6-Amino-pyridin-3-ylmethyl)-carbamoyl]-2-(3,4-difluoro-phenyl)-ethyl]-2-(ethyl-methyl-amino)-3-hydroxy-propionamide] |
| 13.9 nM | CN[C@@H](C)C(=O)N[C@@H](Cc1ccc(F)c(F)c1)C(=O)NCc1ccc(N)nc1 [Example 85, (S)—N-[(S)-1-[(6-Amino-pyridin-3-ylmethyl)-carbamoyl]-2-(3,4-difluoro-phenyl)-ethyl]-2-methylamino-propionamide] |
| 1.4 nM | CCC(C)[C@@H](NC)C(=O)N[C@@H](Cc1cccc(C(F)(F)F)c1)C(=O)NCc1ccc(N)nc1 (stereo partly drawn) [Example 42, (R)-3-Methyl-2-methylamino-pentanoic acid [(S)-1-[(6-amino-pyridin-3-ylmethyl)-carbamoyl]-2-(3-trifluoromethyl-phenyl)-ethyl]-amide] |
| 25.9 nM | CCN(CC)[C@@H](CO)C(=O)N[C@@H](Cc1ccc(F)c(F)c1)C(=O)NCc1ccc(N)nc1 [Example 362, (S)—N-[(S)-1-[(6-Amino-pyridin-3-ylmethyl)-carbamoyl]-2-(3,4-difluoro-phenyl)-ethyl]-2-diethylamino-3-hydroxy-propionamide] |
| 2 nM | CCN(CC)[C@@H](C)C(=O)N[C@@H](Cc1cccc(C(F)(F)F)c1)C(=O)NCc1ccc(N)nc1 [Example 418, (S)—N-[(S)-1-[(6-Amino-pyridin-3-ylmethyl)-carbamoyl]-2-(3-trifluoromethyl-phenyl)-ethyl]-2-diethylamino-propionamide] |
| 2.7 nM | CCN(CC)[C@@H](C)C(=O)N[C@@H](Cc1ccc(F)cc1)C(=O)NCc1ccc(N)nc1 [Example 376, (S)—N-[(S)-1-[(6-Amino-pyridin-3-ylmethyl)-carbamoyl]-2-(4-fluoro-phenyl)-ethyl]-2-diethylamino-propionamide] |
| 3.1 nM | CCC(C)[C@@H](NC)C(=O)N[C@@H](Cc1cccc(Cl)c1)C(=O)NCc1ccc(N)nc1 (stereo partly drawn) [Example 45, (R)-3-Methyl-2-methylamino-pentanoic acid [(S)-1-[(6-amino-pyridin-3-ylmethyl)-carbamoyl]-2-(3-chloro-phenyl)-ethyl]-amide] |
| 1.1 nM | CC(C)N(C)[C@@H](C)C(=O)N[C@@H](Cc1ccc(F)cc1)C(=O)NCc1ccc(N)nc1 [Example 181, (S)—N-[(S)-1-[(6-Amino-pyridin-3-ylmethyl)-carbamoyl]-2-(4-fluoro-phenyl)-ethyl]-2-(isopropyl-methyl-amino)-propionamide] |

Source: patent US20100076015A1, “Aminopyridine Derivatives” (VANTIA LIMITED, priority 2008, published 2010)
